Laboratory results as given in US20240252488A1 (KOREA RESEARCH INSTITUTE OF CHEMICAL TECHNOLOGY, priority 2020, published 2024).

Tests used:
FADD−/− Jurkat cells = assay: Necroptosis inhibition assay, TNF-α-induced necroptosis (CellTiter-Glo 2.0); type: cell-based, human; settings: TNF-α 15 ng/mL; for Necroptosis inhibition assay (Rescue %) 1 μM: compound 1 μM; for Necroptosis inhibition assay (Rescue %) 10 μM: compound 10 μM
How it was run: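 Necroptosis was triggered by TNF-α at 15 ng/mL final following 30 minutes of compound exposure (0.1, 1 or 10 μM final). Incubation ran 20 to 24 hours at 37° C under 5% CO2; cell ATP was then quantified by luminescence.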

MLKL [1] = target: T1, MLKL (Homo sapiens, UniProt Q8NB16); assay: MLKL degradation assay in HepG2 cell line (western blot); type: cell-based; design: endogenous in cells; host or cells: HepG2 or HaCaT; settings: cell line not given; for Degradation assay (Degradation %) 1 μM: compound 1 μM; for Degradation assay (Degradation %) 10 μM: compound 10 μM
T1 sequence (Q8NB16 1-471): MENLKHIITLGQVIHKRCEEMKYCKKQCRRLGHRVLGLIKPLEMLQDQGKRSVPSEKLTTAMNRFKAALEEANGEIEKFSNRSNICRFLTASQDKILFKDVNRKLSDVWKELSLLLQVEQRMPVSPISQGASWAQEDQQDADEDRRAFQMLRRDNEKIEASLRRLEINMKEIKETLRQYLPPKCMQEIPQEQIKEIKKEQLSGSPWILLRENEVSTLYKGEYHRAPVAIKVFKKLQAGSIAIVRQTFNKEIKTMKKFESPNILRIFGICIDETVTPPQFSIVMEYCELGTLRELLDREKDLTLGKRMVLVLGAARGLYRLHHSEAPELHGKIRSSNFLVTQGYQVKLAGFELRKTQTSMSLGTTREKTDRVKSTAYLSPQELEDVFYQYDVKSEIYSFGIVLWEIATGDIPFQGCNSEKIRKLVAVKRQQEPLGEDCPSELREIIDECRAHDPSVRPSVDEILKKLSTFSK
How it was run: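 After treating HepG2 with test compounds (final 1 μM or 10 μM) for 20-24 h, we lysed cells, equalized protein by BCA and probed MLKL by overnight primary antibody at 4 °C followed by chemiluminescent detection.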

MLKL [2] = target: T1, MLKL; assay: Measurement of binding affinity with MLKL receptor (competitive binding assay, Kd); design: made in house; host or cells: HEK 293 cell line (T7 phage in E. coli BL21-derived host is also described)
How it was run: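 Competitive displacement of MLKL, expressed in HEK 293 cells and DNA-tagged for qPCR, from immobilized ligand on biotin-blocked beads. Compounds were added from 111× DMSO stocks (final DMSO 0.9%). Kinase left in the eluates was quantified by qPCR to give Kd.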

| SMILES | Necroptosis inhibition assay (Rescue %) 1 μM (FADD−/− Jurkat cells; FADD−/− Jurkat cells) | Necroptosis inhibition assay (Rescue %) 10 μM (FADD−/− Jurkat cells; FADD−/− Jurkat cells) | Degradation assay (Degradation %) 1 μM (MLKL [1]) | Degradation assay (Degradation %) 10 μM (MLKL [1]) | Kd (MLKL [2]) | Necroptosis inhibition assay (Rescue %) 1 μM (FADD−/− Jurkat cells) | Necroptosis inhibition assay (Rescue %) 10 μM (FADD−/− Jurkat cells) |
| --- | --- | --- | --- | --- | --- | --- | --- |
| Nc1ncc(-c2cnn(C3CCN(CC4CCN(C(=O)C5CCN(C6=CC(=O)N(C7CCC(=O)NC7=O)C6=O)CC5)CC4)CC3)c2)nc1C(=O)O[C@@H](C(=O)Nc1ccc(F)cc1)c1ccccc1 (stereo partly drawn) [TDH-523, (R)-2-((4-fluorophenyl)amino)-2-oxo-1-phenylethyl 3-amino-6-(1-(1-((1-(1-(1-(2,6-dioxopiperidin-3-yl)-2,5-dioxo-2,5-dihydro-1H-pyrrol-3-yl)piperidine-4-carbonyl)piperidin-4-yl)methyl)piperidin-4-yl)-1H-pyrazol-4-yl)pyrazine-2-carboxylate] | 35.34% | 16.27% | 89.24% | 77.14% | 1 nM |  |  |
| Nc1ncc(-c2cnn(C3CCN(CCC4CCN(C(=O)CNc5cccc6c5C(=O)N(C5CCC(=O)NC5=O)C6=O)CC4)CC3)c2)cc1C(=O)OC(C(=O)Nc1ccc(F)cc1)c1ccccc1 (stereo not shown) [TDH-303, 2-((4-fluorophenyl)amino)-2-oxo-1-phenylethyl 2-amino-5-(1-(1-(2-(1-((2-(2,6-dioxopiperidin-3-yl)-1,3-dioxoisoindolin-4-yl)glycyl)piperidin-4-yl)ethyl)piperidin-4-yl)-1H-pyrazol-4-yl)nicotinate] |  |  | 82.82% | 82.05% | 13 nM | 10.34% | 17.69% |
| Nc1ncc(-c2cnn(C3CCN(CCCN4CCN(C(=O)COc5ccc6c(c5)C(=O)N(C5CCC(=O)NC5=O)C6=O)CC4)CC3)c2)nc1C(=O)O[C@@H](C(=O)Nc1cccc(Cl)c1)c1ccccc1 (stereo partly drawn) [TDH-485, (R)-2-((3-chlorophenyl)amino)-2-oxo-1-phenylethyl 3-amino-6-(1-(1-(3-(4-(2-((2-(2,6-dioxopiperidin-3-yl)-1,3-dioxoisoindolin-5-yl)oxy)acetyl)piperazin-1-yl)propyl)piperidin-4-yl)-1H-pyrazol-4-yl)pyrazine-2-carboxylate] | 61.51% | 50.03% | 87.46% | 93.6% | 10 nM |  |  |
| Nc1ncc(-c2cnn(C3CCN(CCOC4CCN(C(=O)CCc5cccc6c5CN(C5CCC(=O)NC5=O)C6=O)CC4)CC3)c2)nc1C(=O)O[C@@H](C(=O)Nc1ccc(F)cc1)c1ccccc1 (stereo partly drawn) [TDH-387, (R)-2-((4-fluorophenyl)amino)-2-oxo-1-phenylethyl 3-amino-6-(1-(1-(2-((1-(3-(2-(2,6-dioxopiperidin-3-yl)-1-oxoisoindolin-4-yl)propanoyl)piperidin-4-yl)oxy)ethyl)piperidin-4-yl)-1H-pyrazol-4-yl)pyrazine-2-carboxylate] |  |  | 85.77% | 66.9% | 1.6 nM | 37.82% | 25.00% |
| Nc1ncc(-c2cnn(C3CCN(CCOCCNC(=O)C4CN(c5ccc6c(c5)C(=O)N(C5CCC(=O)NC5=O)C6=O)C4)CC3)c2)nc1C(=O)O[C@@H](C(=O)Nc1ccc(F)cc1)c1ccccc1 (stereo partly drawn) [TDH-127, (R)-2-((4-fluorophenyl)amino)-2-oxo-1-phenylethyl 3-amino-6-(1-(1-(2-(2-(1-(2-(2,6-dioxopiperidin-3-yl)-1,3-dioxoisoindolin-5-yl)azetidine-3-carboxamido)ethoxy)ethyl)piperidin-4-yl)-1H-pyrazol-4-yl)pyrazine-2-carboxylate] |  |  | 4.37% | 43.64% | 5.6 nM | 34.64% | 49.65% |
| Nc1ncc(-c2cnn(C3CCN(CCCN4CCN(c5ccc6c(c5)C(=O)N(C5CCC(=O)NC5=O)C6=O)CC4)CC3)c2)nc1C(=O)OC(C(=O)Nc1ccc(F)cc1)c1ccccc1 (stereo not shown) [TDH-246, 2-((4-fluorophenyl)amino)-2-oxo-1-phenylethyl 3-amino-6-(1-(1-(3-(4-(2-(2,6-dioxopiperidin-3-yl)-1,3-dioxoisoindolin-5-yl)piperazin-1-yl)propyl)piperidin-4-yl)-1H-pyrazol-4-yl)pyrazine-2-carboxylate] |  |  | 66.35% | 46.78% | 3.3 nM | 60.97% | 26.97% |
| Nc1ncc(-c2cnn([C@@H]3CCN(CC4CCN(C(=O)COc5ccc6c(c5)C(=O)N(C5CCC(=O)NC5=O)C6=O)CC4)C3)c2)nc1C(=O)OC(C(=O)Nc1ccc(F)cc1)c1ccccc1 (stereo partly drawn) [TDH-288, 2-((4-fluorophenyl)amino)-2-oxo-1-phenylethyl 3-amino-6-(1-((3R)-1-((1-(2-((2-(2,6-dioxopiperidin-3-yl)-1,3-dioxoisoindolin-5-yl)oxy)acetyl)piperidin-4-yl)methyl)pyrrolidin-3-yl)-1H-pyrazol-4-yl)pyrazine-2-carboxylate] |  |  | 75.31% | 89.16% | 5.2 nM | 70.93% | 66.54% |
| Nc1ncc(-c2cnn(C3CCN(CCOC4CCN(C(=O)c5ccc6c(N7CCC(=O)NC7=O)coc6c5)CC4)CC3)c2)nc1C(=O)O[C@@H](C(=O)Nc1ccc(F)cc1)c1ccccc1 [TDH-554, (R)-2-((4-fluorophenyl)amino)-2-oxo-1-phenylethyl 3-amino-6-(1-(1-(2-((1-(3-(2,4-dioxotetrahydropyrimidin-1(2H)-yl)benzofuran-6-carbonyl)piperidin-4-yl)oxy)ethyl)piperidin-4-yl)-1H-pyrazol-4-yl)pyrazine-2-carboxylate] | 39.53% | 14.16% | 83.95% | 70.50% | 0.43 nM |  |  |
| Nc1ncc(-c2cnn(C3CCN(CCCCCCCCCCNC(=O)C4CN(c5ccc6c(c5)C(=O)N(C5CCC(=O)NC5=O)C6=O)C4)CC3)c2)nc1C(=O)O[C@@H](C(=O)Nc1ccc(F)cc1)c1ccccc1 (stereo partly drawn) [TDH-159, (R)-2-((4-fluorophenyl)amino)-2-oxo-1-phenylethyl 3-amino-6-(1-(1-(10-(1-(2-(2,6-dioxopiperidin-3-yl)-1,3-dioxoisoindolin-5-yl)azetidine-3-carboxamido)decyl)piperidin-4-yl)-1H-pyrazol-4-yl)pyrazine-2-carboxylate] |  |  |  | 29.21% | 18 nM | 33.57% | 34.1% |
| Nc1ncc(-c2cnn(C3CCN(CCOCCOCCOCCNC(=O)CNc4ccc5c(c4)C(=O)N(C4CCC(=O)NC4=O)C5=O)CC3)c2)nc1C(=O)O[C@@H](C(=O)Nc1ccc(F)cc1)c1ccccc1 (stereo partly drawn) [TDH-144, (R)-2-((4-fluorophenyl)amino)-2-oxo-1-phenylethyl 3-amino-6-(1-(1-(1-((2-(2,6-dioxopiperidin-3-yl)-1,3-dioxoisoindolin-5-yl)amino)-2-oxo-6,9,12-trioxa-3-azatetradecan-14-yl)piperidin-4-yl)-1H-pyrazol-4-yl)pyrazine-2-carboxylate] |  |  | 58.79% | 86.28% | 2.5 nM | 15.23% | 68.71% |
